The source of these data is ChEMBL document CHEMBL1125066, “Phosphoramidate peptide inhibitors of human skin fibroblast collagenase” (J Med Chem, 1990).

The structures appear in SMILES notation. Square brackets hold non-standard residues; d marks the D form. Peptide text beside a SMILES is read from it. * marks the point of attachment. Arg(NO2) = N=C(NCCC[C@H](N)C(=O)O)N[N+](=O)[O-]; X1 = CCOP(=O)(O)N[C@H](C(=O)*)[C@@H](C)CC

Experiment [1] concerns the target T1, Interstitial collagenase (Homo sapiens, UniProt P03956).
T1 sequence (P03956 whole entry): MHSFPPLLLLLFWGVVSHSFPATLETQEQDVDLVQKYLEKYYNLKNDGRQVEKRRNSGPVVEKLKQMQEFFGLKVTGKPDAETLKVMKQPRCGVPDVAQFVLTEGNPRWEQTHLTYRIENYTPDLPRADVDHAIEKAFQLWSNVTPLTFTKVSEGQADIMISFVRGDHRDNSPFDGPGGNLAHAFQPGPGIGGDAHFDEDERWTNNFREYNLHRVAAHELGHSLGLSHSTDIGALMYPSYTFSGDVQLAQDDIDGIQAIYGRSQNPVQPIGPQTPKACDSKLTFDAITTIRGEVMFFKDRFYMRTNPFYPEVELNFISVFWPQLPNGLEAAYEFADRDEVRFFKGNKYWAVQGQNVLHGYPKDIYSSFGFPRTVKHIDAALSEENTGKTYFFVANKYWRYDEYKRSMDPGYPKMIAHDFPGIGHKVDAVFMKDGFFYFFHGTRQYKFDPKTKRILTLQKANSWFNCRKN
Nature of the experiment: Assayed against human skin fibroblast Collagenase using the spectrophotometric assay with the thiol ester substrate at pH 6.5.

In another experiment the target is T2, Collagenase ColA (Bacteria, UniProt P43153).
T2 sequence (P43153 whole entry): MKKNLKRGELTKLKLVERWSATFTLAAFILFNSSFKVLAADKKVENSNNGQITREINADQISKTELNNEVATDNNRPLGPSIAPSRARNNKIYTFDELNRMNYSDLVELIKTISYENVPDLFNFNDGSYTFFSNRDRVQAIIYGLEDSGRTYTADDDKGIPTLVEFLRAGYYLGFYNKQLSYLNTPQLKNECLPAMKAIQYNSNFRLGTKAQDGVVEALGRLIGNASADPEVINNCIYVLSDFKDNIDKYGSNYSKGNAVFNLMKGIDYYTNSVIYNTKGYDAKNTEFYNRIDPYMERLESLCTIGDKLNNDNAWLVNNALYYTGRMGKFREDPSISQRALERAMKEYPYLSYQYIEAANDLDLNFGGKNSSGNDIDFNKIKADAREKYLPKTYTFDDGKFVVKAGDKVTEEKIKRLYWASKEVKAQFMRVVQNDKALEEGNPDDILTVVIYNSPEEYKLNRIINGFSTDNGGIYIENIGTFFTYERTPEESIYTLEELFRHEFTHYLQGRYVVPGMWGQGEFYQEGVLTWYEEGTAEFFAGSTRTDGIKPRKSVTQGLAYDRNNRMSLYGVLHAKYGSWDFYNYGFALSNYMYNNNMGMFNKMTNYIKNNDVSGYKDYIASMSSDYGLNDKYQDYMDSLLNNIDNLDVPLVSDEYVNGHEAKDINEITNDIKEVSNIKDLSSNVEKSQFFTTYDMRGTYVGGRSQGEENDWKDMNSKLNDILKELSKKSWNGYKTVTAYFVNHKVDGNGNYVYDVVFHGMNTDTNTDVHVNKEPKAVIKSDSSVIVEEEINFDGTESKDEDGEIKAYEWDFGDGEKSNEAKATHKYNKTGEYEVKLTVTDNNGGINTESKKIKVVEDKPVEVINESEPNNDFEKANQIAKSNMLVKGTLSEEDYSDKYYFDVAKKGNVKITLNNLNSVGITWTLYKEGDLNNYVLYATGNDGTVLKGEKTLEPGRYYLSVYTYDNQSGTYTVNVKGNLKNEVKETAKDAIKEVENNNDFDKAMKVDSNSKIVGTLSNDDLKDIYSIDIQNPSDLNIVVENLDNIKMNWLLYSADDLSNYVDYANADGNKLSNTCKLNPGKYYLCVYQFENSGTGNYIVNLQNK
Nature of the experiment: Inhibition of bacterial Collagenase. Further details: species or system Hathewaya histolytica.

The target of experiment [2] is T1, Interstitial collagenase. The experiment can be described thus: Inhibition of human skin fibroblast Collagenase at pH 7.5.
Experiment [3] deals with T3, Angiotensin-converting enzyme (Oryctolagus cuniculus, UniProt P12822).
T3 sequence (P12822 whole entry): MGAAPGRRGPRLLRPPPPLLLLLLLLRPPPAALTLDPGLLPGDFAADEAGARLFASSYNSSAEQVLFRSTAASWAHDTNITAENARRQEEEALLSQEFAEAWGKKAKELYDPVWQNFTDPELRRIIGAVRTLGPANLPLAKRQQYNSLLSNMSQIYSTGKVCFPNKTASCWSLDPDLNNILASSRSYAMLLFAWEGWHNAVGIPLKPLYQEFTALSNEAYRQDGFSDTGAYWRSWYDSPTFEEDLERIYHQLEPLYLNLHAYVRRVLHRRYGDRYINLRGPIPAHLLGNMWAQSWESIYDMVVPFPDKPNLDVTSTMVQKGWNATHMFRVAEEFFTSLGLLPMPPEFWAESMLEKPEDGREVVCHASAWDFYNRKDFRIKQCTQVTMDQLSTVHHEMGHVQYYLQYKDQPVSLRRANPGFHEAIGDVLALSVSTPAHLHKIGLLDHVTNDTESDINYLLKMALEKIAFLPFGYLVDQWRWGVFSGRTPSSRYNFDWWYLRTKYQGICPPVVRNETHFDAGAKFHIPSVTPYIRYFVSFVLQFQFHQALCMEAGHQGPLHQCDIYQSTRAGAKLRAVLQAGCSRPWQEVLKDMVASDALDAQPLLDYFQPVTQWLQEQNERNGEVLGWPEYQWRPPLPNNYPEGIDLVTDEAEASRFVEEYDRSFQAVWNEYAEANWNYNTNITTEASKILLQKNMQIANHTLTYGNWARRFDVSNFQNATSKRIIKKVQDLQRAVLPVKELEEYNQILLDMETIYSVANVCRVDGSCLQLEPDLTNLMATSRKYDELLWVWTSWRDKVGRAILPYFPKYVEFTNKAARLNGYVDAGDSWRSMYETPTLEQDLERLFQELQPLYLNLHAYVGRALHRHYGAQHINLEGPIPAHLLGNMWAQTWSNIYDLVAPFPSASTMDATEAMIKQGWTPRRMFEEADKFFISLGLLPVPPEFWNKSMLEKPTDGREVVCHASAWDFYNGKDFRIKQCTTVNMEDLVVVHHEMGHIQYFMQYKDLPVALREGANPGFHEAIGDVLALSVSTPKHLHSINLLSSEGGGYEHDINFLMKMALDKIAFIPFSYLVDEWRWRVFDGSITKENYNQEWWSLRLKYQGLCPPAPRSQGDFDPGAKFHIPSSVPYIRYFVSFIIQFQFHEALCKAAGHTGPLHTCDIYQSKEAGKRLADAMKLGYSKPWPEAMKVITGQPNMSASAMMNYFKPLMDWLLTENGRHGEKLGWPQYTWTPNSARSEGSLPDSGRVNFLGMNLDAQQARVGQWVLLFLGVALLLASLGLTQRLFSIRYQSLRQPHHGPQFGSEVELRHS
The experiment can be described thus: Inhibitory activity against Angiotensin I converting enzyme.

Compound `CCOP(=O)(O)N[C@H](C(=O)N[C@@H](Cc1c[nH]c2ccccc12)C(=O)NCC(=O)O)[C@@H](C)CC` gave a Ki at Interstitial collagenase [1] of 13 µM.
In the case of `CCOP(=O)(O)N[C@H](C(=O)N[C@@H](C)C(=O)NCC(=O)N[C@@H](CCC(=O)O)C(=O)N[C@@H](CCCN=C(N)N)C(=O)NCC(=O)O)[C@@H](C)CC` (X1-AGERG-OH), the inhibitory constant (Ki) on Interstitial collagenase [1] came out at 403 µM.
The same measure, in the same setting: then `CCOP(=O)(O)N[C@H](C(=O)NC(Cc1ccc(OCc2ccccc2)cc1)C(=O)NC)[C@@H](C)CC` (some centres undefined), with 18 µM.
Same read-out and setting: then `CCOP(=O)(O)N[C@H](C(=O)N[C@@H](CC(C)C)C(=O)NCC(=O)O)[C@@H](C)CC`, with 49 µM.
Turning to `CCOP(=O)(O)N[C@H](C(=O)NC(Cc1c[nH]c2ccccc12)C(=O)NC)[C@@H](C)CC` (some centres undefined), the Ki on Collagenase ColA was over 5000 µM; at Interstitial collagenase [2] it was 0.9 µM; on Interstitial collagenase [1], 1.5 µM.
The compound `CCOP(=O)(O)N[C@H](C(=O)NC(Cc1ccc(OC2CCCCO2)cc1)C(=O)NCC(=O)O)[C@@H](C)CC` (some centres undefined) yielded a Ki at Interstitial collagenase [1] of 25 µM.
For the compound `CCOP(=O)(O)N[C@H](C(=O)N[C@@H](C)C(=O)NCC(=O)O)[C@@H](C)CC`, the results for the Ki at Interstitial collagenase [2] and at Interstitial collagenase [1] were 147 µM and 130 µM, respectively.
For `CCOP(=O)(O)N[C@H](C(=O)N[C@@H](Cc1ccc(OCc2cc(Cl)cc(Cl)c2)cc1)C(=O)NCC(=O)O)[C@@H](C)CC`, in that order: 13 µM and 5.7 µM.
With `CCOP(=O)(O)N[C@H](C(=O)N[C@@H](Cc1ccc(OCc2ccccc2)cc1)C(=O)N[C@@H](Cc1ccccc1)C(=O)O)[C@@H](C)CC`, at Interstitial collagenase [1], the Ki was 120 µM.
Still for that read-out and setting: then `CCOP(=O)(O)N[C@H](C(=O)N[C@@H](Cc1ccc(OCC(=O)N[C@@H](CCCCN)C(=O)O)cc1)C(=O)NCC(=O)O)[C@@H](C)CC`, with 50 µM; and `CCOP(=O)(O)N[C@H](C(=O)N[C@@H](Cc1ccc(OCC(=O)O)cc1)C(=O)NCC(=O)O)[C@@H](C)CC`, with 32 µM.
Still for that read-out and setting: then `CCOP(=O)(O)N[C@H](C(=O)N[C@@H](C)C(=O)NCC(=O)N[C@@H](CCC(N)=O)C(=O)N[C@@H](CCCNC(=N)N)C(=O)NCC(=O)O)[C@@H](C)CC` (X1-AGQRG-OH), with 460 µM; and `CCOP(=O)(O)N[C@H](C(=O)N[C@@H](C)C(=O)NCC(=O)N[C@@H](CCC(=O)O)C(=O)N[C@@H](CCCNC(=N)N[N+](=O)[O-])C(=O)NCC(=O)O)[C@@H](C)CC` (X1-AGE[Arg(NO2)]G-OH), with 270 µM; and `CCOP(=O)(O)N[C@@H](CC(C)C)C(=O)N[C@@H](C)C(=O)NCC(=O)O`, with 140 µM.
Still for that read-out and setting: with `CCOP(=O)(O)N[C@H](C(=O)N[C@@H](C)C(=O)NCC(=O)N[C@@H](CCC(N)=O)C(=O)N[C@@H](CCCNC(=N)N[N+](=O)[O-])C(=O)O)[C@@H](C)CC` (X1-AGQ[Arg(NO2)]-OH) the figure was 1900 µM.
In the case of `CCOP(=O)(O)N[C@H](C(=O)NC(Cc1ccc(OC)cc1)C(=O)NC)[C@@H](C)CC` (some centres undefined), the Ki at Interstitial collagenase [1] stood at 31 µM.
On the same count and under the same terms, with `CCOP(=O)(O)N[C@H](C(=O)N[C@@H](Cc1ccc(OCC(=O)N(Cc2ccccc2)Cc2ccccc2)cc1)C(=O)NCC(=O)O)[C@@H](C)CC` the figure was 27 µM.
Same read-out and setting: then `CCOP(=O)(O)N[C@H](C(=O)N[C@@H](Cc1ccc(O)cc1)C(=O)NCC(=O)O)[C@@H](C)CC`, with 22 µM.
Regarding `CCOP(=O)(O)N[C@H](C(=O)NC(Cc1ccc(OCc2ccccc2)cc1)C(=O)NCC(=O)O)[C@@H](C)CC` (some centres undefined), the inhibitory constant (Ki) is over 5 µM on Collagenase ColA, 6.7 µM at Interstitial collagenase [1] and 0.2 µM in experiment [3].
`CCOP(=O)(O)N[C@H](C(=O)N[C@@H](Cc1ccc(N)cc1)C(=O)NCC(=O)O)[C@@H](C)CC`: at Interstitial collagenase [1], the Ki came to 19 µM.
Still for that read-out and setting: with `CCOP(=O)(O)N[C@H](C(=O)N[C@@H](Cc1ccccc1)C(=O)NCC(=O)O)[C@@H](C)CC` the figure was 29 µM; with `CCOP(=O)(O)N[C@H](C(=O)N[C@@H](Cc1ccc(OCC(=O)NCc2ccccc2)cc1)C(=O)NCC(=O)O)[C@@H](C)CC`, 16 µM.
Same read-out and setting: then `CCOP(=O)(O)N[C@H](C(=O)N[C@@H](C)C(=O)NCC(=O)N[C@@H](CC(C)C)C(=O)O)[C@@H](C)CC`, with 240 µM.
